Among the data in US8455499B2, “Alkyne antagonists of lysophosphatidic acid receptors” (Amira Pharmaceuticals, Inc., priority 2008, dated 2013) are IC50 values, retold here.

pIC50: −log10 of the molar value.

A word on the pIC50: it is the IC50 on a negative log10 scale, so that one unit is a factor of ten.

T1 sequence (Q92633 whole entry): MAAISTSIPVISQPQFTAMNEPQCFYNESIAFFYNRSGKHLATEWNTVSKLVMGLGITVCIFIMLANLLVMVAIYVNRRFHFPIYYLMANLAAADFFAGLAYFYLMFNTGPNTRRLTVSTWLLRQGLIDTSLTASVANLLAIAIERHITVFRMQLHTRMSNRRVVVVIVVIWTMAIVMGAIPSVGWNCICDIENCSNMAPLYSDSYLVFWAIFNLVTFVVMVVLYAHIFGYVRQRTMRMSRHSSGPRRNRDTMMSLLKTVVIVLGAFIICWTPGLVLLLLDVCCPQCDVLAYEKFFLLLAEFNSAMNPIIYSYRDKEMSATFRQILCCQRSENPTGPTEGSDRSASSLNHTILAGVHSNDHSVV

The experiment concerns the target T1, human LPA1 (Homo sapiens, UniProt Q92633).
T1 construct: the full-length cDNA for human LPA1 was obtained by PCR of the reverse transcription reaction; expressed in transfected cells
The experiment is described as follows: HLPA1 Ca Flux assay (LPA1 calcium flux assay). The class given is cell-based. The settings on record: CHO cells stably expressing human LPA1; stimulated by 10 nM LPA; intracellular Ca2+. The method, then:
A 1.1 kb cDNA encoding the human LPA1 receptor was cloned from human lung. Human lung RNA (Clontech Laboratories, Inc. USA) was reverse transcribed using the RETROscript kit (Ambion, Inc.) and the full-length cDNA for human LPA1 was obtained by PCR of the reverse transcription reaction. The nucleotide sequence of the cloned human LPA1 was determined by sequencing and confirmed to be identical to the published human LPA1 sequence (An et al. Biochem. Biophys. Res. Commun. 231:619 (1997). The cDNA was cloned into the pCDNA5/FRT expression plasmid and transfected in CHO cells using lipofectamine 2000 (Invitrogen Corp., USA). Clones stably expressing human LPA1 were selected using hygromycin and identified as cells that show Ca-influx in response to LPA.
Human LPA1 or LPA3 expressing CHO cells are seeded at 20,000-45,000 cells per well in a 96-well poly-D-lysine coated plate one or two days before the assay. Prior to the assay, the cells are washed once with PBS and then cultured in serum-free media overnight. On the day of the assay, a calcium indicator dye (Calcium 4, Molecular Devices) in assay buffer (HBSS with Ca^2+ and Mg^2+ and containing 20 mM Hepes and 0.3% fatty-acid free human serum albumin) is added to each well and incubation continued for 1 hour at 37° C. 10 μl of test compounds in 2.5% DMSO are added to the cells and incubation continued at room temperature for 30 minutes. Cells are the stimulated by the addition of 10 nM LPA and intracellular Ca^2+ measured using the Flexstation 3 (Molecular Devices). IC50s are determined using Graphpad prism analysis of drug titration curves.
For orientation: Calcium assays in cells follow changes in intracellular calcium, usually with a dye or a luminescent sensor.
For the molecule `Cc1noc(-c2ccc(C#CCCC(=O)O)cc2)c1NC(=O)OC(C)c1ccccc1Cl` (centres unmarked) [Compound 1-1, 5-(4-{4-[1-(2-Chloro-phenyl)-ethoxycarbonylamino]-3-methyl-isoxazol-5-yl}-phenyl)-pent-4-ynoic acid], the pIC50 was above 6.52.
As to `Cc1noc(-c2ccc(C#CCCCC(=O)O)cc2)c1NC(=O)OC(C)c1ccccc1Cl` (centres unmarked) [Compound 1-2, 6-(4-{4-[1-(2-Chloro-phenyl)-ethoxycarbonylamino]-3-methyl-isoxazol-5-yl}-phenyl)-hex-5-ynoic acid], the pIC50 is above 6.52.
For `Cc1noc(-c2ccc(C#CCCCCC(=O)O)cc2)c1NC(=O)OC(C)c1ccccc1Cl` (centres unmarked) [Compound 1-3, 7-(4-{4-[1-(2-Chloro-phenyl)-ethoxycarbonylamino]-3-methyl-isoxazol-5-yl}-phenyl)-hept-6-ynoic acid], the negative-log IC50 (pIC50) was above 6.52.
With `Cc1noc(-c2ccc(C#CCC(C)(C)C(=O)O)cc2)c1NC(=O)OC(C)c1ccccc1Cl` (centres unmarked) [Compound 1-4, 5-(4-{4-[1-(2-Chloro-phenyl)-ethoxycarbonylamino]-3-methyl-isoxazol-5-yl}-phenyl)-2,2-dimethyl-pent-4-ynoic acid] the figure was above 6.52; with `Cc1noc(-c2ccc(C#CCn3ncc(C(=O)O)c3C(F)(F)F)cc2)c1NC(=O)OC(C)c1ccccc1Cl` (centres unmarked) [Compound 2-1, 1-[3-(4-{4-[1-(2-Chloro-phenyl)-ethoxycarbonylamino]-3-methyl-isoxazol-5-yl}-phenyl)-prop-2-ynyl]-5-trifluoromethyl-1H-pyrazole-4-carboxylic acid], below 6.00.
In the case of `Cc1noc(-c2ccc(C#CCn3cc(C(=O)O)cn3)cc2)c1NC(=O)OC(C)c1ccccc1Cl` (centres unmarked) [Compound 2-2, 1-[3-(4-{4-[1-(2-Chloro-phenyl)-ethoxycarbonylamino]-3-methyl-isoxazol-5-yl}-phenyl)-prop-2-ynyl]-1H-pyrazole-4-carboxylic acid], the pIC50 is 6.00 to 6.52.
With `Cc1noc(-c2ccc(C#CCn3cnc(C(=O)O)c3)cc2)c1NC(=O)OC(C)c1ccccc1Cl` (centres unmarked) [Compound 2-3, 1-[3-(4-{4-[1-(2-Chloro-phenyl)-ethoxycarbonylamino]-3-methyl-isoxazol-5-yl}-phenyl)-prop-2-ynyl]-1H-imidazole-4-carboxylic acid] the figure was above 6.52; with `Cc1noc(-c2ccc(C#CCn3cncn3)cc2)c1NC(=O)OC(C)c1ccccc1Cl` (centres unmarked) [Compound 3-1], above 6.52.
